This experiment has as its target T1, recombinant human DPP-1 (Cathepsin C) (Homo sapiens, UniProt P53634).
T1 construct: made in house
Put plainly: DPP-1 Inhibition Assay (In Vitro), fluorogenic substrate GR-AMC. It counts as biochemical. As to conditions: room temperature; 0.15 nM DPP-1, 10 uM GR-AMC, pH 7.0; average where tested multiple times. How it is done: Test compounds were assessed for DPP-1 (Cathepsin C) inhibitory activity using a fluorogenic substrate, GR-AMC (Glycine-Arginine-amino-4-methylcoumarin, Bachem, 1-1215). The amount of amino-methylcoumarin released is proportional to the DPP-1 activity, and the reaction is monitored kinetically with a Molecular Devices plate reader using black 96-well plates.
All compounds were tested under room temperature conditions. The assay buffer consisted of 50 mM HEPES, pH 7.0, 100 mM NaCl, 2 mM glutathione (GSH), and 0.002% TWEEN 20. GSH and TWEEN 20 were added to the buffer fresh daily. Just prior to use, an in-house preparation of recombinant human DPP-1 (240 μM stock, MW 49.6 kD) was diluted 600-fold in assay buffer containing fresh 2 mM dithiothreitol (DTT) to activate the enzyme, then diluted into assay buffer (without DTT) 133-fold for a DPP-1 working solution of 3 nM. Test compounds were diluted in DMSO for 20× their final assay concentrations.
Additions to a 96-well black Costar 3915 plates were as follows: 90 μL of 11 μM GR-AMC, 5 μL test compound (followed by mixing), and 5 μL 3 nM DPP1 to start the reaction. Fluorescent reactions were monitored kinetically at 360 nm excitation, 440 nm emission on a Molecular Devices Spectramax XPS reader. The Softmax Pro software of the reader determined the initial velocity of the selected data (the first 3-5 minutes of the reaction), and the best linear regression fit of the initial kinetic data. Final assay conditions were 0.15 nM DPP-1, 10 uM GR-AMC, 50 mM HEPES, pH 7.0, 100 mM NaCl, 2 mM GSH, 0.002% TWEEN 20, 1 uM DTT, 5.0% DMSO. Initial velocity rates were plotted vs. test compound concentration by use of a four-parameter logistics equation (nonlinear regression, sigmoidal dose-response (variable slope), with fixed Hill (1.0) using GraphPad Prism® software for determination of DPP-1 IC50. Within-run assay coefficient of variation (CV) was generally <10%; between-run CV <20%.
Representative compounds of the present invention were tested according to the procedure as described above, with results as listed in Table 2, below. Additionally, Table 2 below lists the measured mass for said representative compounds of the present invention, more particularly the mass of the MH^+ ion.

T1 sequence (P53634 25-463): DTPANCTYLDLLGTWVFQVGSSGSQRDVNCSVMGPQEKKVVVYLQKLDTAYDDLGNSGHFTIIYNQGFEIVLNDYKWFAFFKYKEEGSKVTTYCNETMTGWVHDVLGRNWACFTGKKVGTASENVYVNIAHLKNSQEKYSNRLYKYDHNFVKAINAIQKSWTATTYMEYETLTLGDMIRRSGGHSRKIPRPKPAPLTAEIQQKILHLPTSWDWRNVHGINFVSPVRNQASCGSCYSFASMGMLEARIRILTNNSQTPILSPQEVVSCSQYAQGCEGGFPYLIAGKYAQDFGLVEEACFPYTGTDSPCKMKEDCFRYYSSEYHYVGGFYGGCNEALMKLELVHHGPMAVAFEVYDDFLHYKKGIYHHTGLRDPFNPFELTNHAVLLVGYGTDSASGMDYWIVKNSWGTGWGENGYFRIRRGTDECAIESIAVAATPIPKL

Consider `CC(C)C[C@H](N)C(=O)NCCCC#Cc1cccc(OC2CCNCC2)c1` [Compound 31], for which the IC50 (usually the point on the concentration scale where inhibition reaches its midpoint) came out at 30 µM.

In the case of `CC[C@H](N)C(=O)NCCCC#Cc1ccc2c(c1)OCCO2` [Compound 97], the IC50 was found to be 5 µM.

For the compound `CC[C@H](N)C(=O)NCCCC#Cc1ccc(C(C)C)cc1` [Compound 95], the half-maximal inhibitory concentration (IC50) amounted to 1.2 µM.

Turning to `C#CC[C@H](N)C(=O)NCCCC#Cc1cccc(O[C@H]2CCCNC2)c1` [Compound 85, (S)-2-amino-N-(5-(3-((S)-piperidin-3-yloxy)phenyl)pent-4-ynyl)pent-4-ynamide], the IC50 was found to be 1.2 µM.

Take `N[C@@H](CCO)C(=O)NCCCC#Cc1cccc(OC2CCNCC2)c1` [Compound 15, (S)-2-amino-4-hydroxy-N-(5-(3-(piperidin-4-yloxy)phenyl)pent-4-ynyl)butanamide]: the IC50 was found to be 2.5 µM.

With `CC[C@H](N)C(=O)NCCCC#Cc1cccc(O[C@H]2CCCNC2)c1` [Compound 80, (S)-2-amino-N-(5-(3-((S)-piperidin-3-yloxy)phenyl)pent-4-ynyl)butanamide], the IC50 worked out at 2.3 µM.

For the compound `CC[C@H](N)C(=O)NCCCC#Cc1ccc(OC)cc1` [Compound 40], the half-maximal inhibitory concentration (IC50) came out at 0.214 µM.

For `CC[C@H](N)C(=O)NCCCC#Cc1ccccc1NC(C)=O` [Compound 103], the half-maximal inhibitory concentration (IC50) was 5.4 µM.

On to `N[C@@H](Cn1cccn1)C(=O)NCCCC#Cc1cccc(OC2CCNCC2)c1` [Compound 19, (S)-2-amino-N-(5-(3-(piperidin-4-yloxy)phenyl)pent-4-ynyl)-3-(1H-pyrazol-1-yl)propanamide], for which the half-inhibitory concentration (IC50) stood at 9.1 µM.

Consider `C#CC[C@H](N)C(=O)NCCC#Cc1cccc(OC2CCNCC2)c1` [Compound 6, (S)-2-amino-N-(4-(3-(piperidin-4-yloxy)phenyl)but-3-ynyl)pent-4-ynamide], for which the IC50 was found to be 2.43 µM.

As to `CC[C@H](N)C(=O)NCCCC#Cc1cccc(OC)c1` [Compound 35], the half-inhibitory concentration (IC50) was 5.8 µM.

For the compound `CC[C@H](N)C(=O)NCCCC#Cc1ccc(S(C)(=O)=O)cc1` [Compound 56, (S)-2-amino-N-(5-(4-(methylsulfonyl)phenyl)pent-4-ynyl)butanamide], the IC50 was found to be 18 µM.

For the compound `CC[C@@H](N)C(=O)NCCCC#Cc1cccc(OC)c1` [Compound 92], the IC50 turned out to be 17 µM.

For the compound `CC[C@H](N)C(=O)NCCCC#Cc1ccc(NC(C)=O)cc1` [Compound 100], the IC50 stood at 6.3 µM.

Regarding `CC[C@H](N)C(=O)NCCCC#Cc1cc(OC)cc(OC)c1` [Compound 59], the 50% inhibitory concentration (IC50) was found to be 12 µM.

With `CC[C@H](N)C(=O)NCCCC#Cc1ccc2ccccc2c1` [Compound 73], the concentration for half-maximal inhibition (IC50) turned out to be 15 µM.

Regarding `NCCC[C@H](N)C(=O)NCCCC#Cc1cccc(OC2CCNCC2)c1` [Compound 13], the IC50 was 98 µM.

With `CC[C@H](N)C(=O)NCCCC#Cc1ccccc1-c1ccccc1` [Compound 61], the IC50 was 6.8 µM.

As to `N[C@@H](Cc1ccccc1)C(=O)NCCCC#Cc1cccc(OC2CCNCC2)c1` [Compound 1], the IC50 was 15.3 µM.

Consider `CC[C@H](N)C(=O)NCCCC#Cc1ccc(C)c2ccccc12` [Compound 83], for which the IC50 amounted to 8.5 µM.

Turning to `CC[C@H](N)C(=O)NCCCC#Cc1cc(C)ccc1C` [Compound 77], the half-maximal inhibitory concentration (IC50) amounted to 33 µM.

As to `CC[C@H](N)C(=O)NCCCC#Cc1ccccc1O` [Compound 104], the IC50 was found to be 8 µM.

`CC[C@H](N)C(=O)NCCCC#Cc1ccc(-c2ccccc2)cc1` [Compound 81]: the IC50 came to 5.6 µM.

Regarding `N[C@@H](CC1CC1)C(=O)NCCCC#Cc1cccc(OC2CCNCC2)c1` [Compound 11], the half-maximal inhibitory concentration (IC50) is 15.3 µM.

In the case of `CC[C@H](N)C(=O)NCCCC#Cc1c(C)c(C)cc(C)c1C` [Compound 76], the IC50 came to 14 µM.

Consider `CC[C@H](N)C(=O)NCCCC#Cc1c(O)ccc2ccccc12` [Compound 105], for which the IC50 is above 10 µM.

`CC[C@H](N)C(=O)NCCCC#Cc1cccc2cnccc12` [Compound 82]: the IC50 is 17 µM.

Take `N[C@@H](Cc1cccs1)C(=O)NCCCC#Cc1cccc(OC2CCNCC2)c1` [Compound 63, (S)-2-amino-N-(5-(3-(piperidin-4-yloxy)phenyl)pent-4-ynyl)-3-(thiophen-2-yl)propanamide]: the 50% inhibitory concentration (IC50) stood at 0.15 µM.

Regarding `C#CC[C@H](N)C(=O)NCCCC#Cc1cccc(O[C@@H]2CCCNC2)c1` [Compound 79, (S)-2-amino-N-(5-(3-((R)-piperidin-3-yloxy)phenyl)pent-4-ynyl)pent-4-ynamide], the IC50 turned out to be 2.9 µM.

In the case of `C#CC[C@H](N)C(=O)NCCCC#Cc1cccc(OC2CCNCC2)c1` [Compound 3, (S)-2-amino-N-(5-(3-(piperidin-4-yloxy)phenyl)pent-4-ynyl)pent-4-ynamide], the IC50 stood at 0.39 µM.

Turning to `CCCC[C@H](N)C(=O)NCCCC#Cc1cccc(OC2CCNCC2)c1` [Compound 12], the IC50 was determined as 5.92 µM.

Turning to `CC[C@H](N)C(=O)NCCCC#Cc1ccc2c(c1)OCO2` [Compound 51], the concentration for half-maximal inhibition (IC50) stood at 15 µM.

For `CC[C@H](N)C(=O)NCCCC#Cc1cccc(F)c1F` [Compound 102], the half-inhibitory concentration (IC50) worked out at 6.1 µM.

`CC[C@H](N)C(=O)NCCCC#Cc1cncc2ccccc12` [Compound 89]: the concentration for half-maximal inhibition (IC50) stood at 7.9 µM.

In the case of `CC[C@@H](N)C(=O)NCCCC#Cc1cccc(OC2CCNCC2)c1` [Compound 71], the IC50 is above 100 µM.

As to `CC[C@H](N)C(=O)NCCCC#Cc1ccc(OC)c(OC)c1` [Compound 57], the IC50 amounted to 17 µM.

Consider `N[C@@H](Cc1c[nH]cn1)C(=O)NCCCC#Cc1cccc(OC2CCNCC2)c1` [Compound 20], for which the concentration for half-maximal inhibition (IC50) worked out at 0.52 µM.

`CC[C@H](N)C(=O)NCCCC#Cc1c(F)ccc2ccccc12` [Compound 106]: the IC50 amounted to 6 µM.

As for `CC[C@H](N)C(=O)NCCCC#Cc1ccccc1C(F)(F)F` [Compound 74], the half-inhibitory concentration (IC50) turned out to be 26 µM.

`CC[C@H](N)C(=O)NCCCC#Cc1cccc(O[C@@H]2CCCNC2)c1` [Compound 78, (S)-2-amino-N-(5-(3-((R)-piperidin-3-yloxy)phenyl)pent-4-ynyl)butanamide]: the IC50 stood at 3.9 µM.

As for `CC[C@H](N)C(=O)NCCCC#Cc1c(OC)ccc2ccccc12` [Compound 87], the 50% inhibitory concentration (IC50) amounted to 13 µM.

As for `CC[C@H](N)C(=O)NCCCC#Cc1ccc(F)c(F)c1` [Compound 39], the IC50 worked out at 0.35 µM.

As for `N[C@@H](Cc1ccccn1)C(=O)NCCCC#Cc1cccc(OC2CCNCC2)c1` [Compound 90], the IC50 is 12 µM.

As to `CC[C@H](N)C(=O)NCCCC#Cc1ccc2sccc2c1` [Compound 60], the IC50 came out at 6 µM.

As to `CC[C@H](N)C(=O)NCCCC#Cc1ccc(C(F)(F)F)cc1` [Compound 58], the concentration for half-maximal inhibition (IC50) is 11 µM.

Regarding `CCC[C@H](N)C(=O)NCCCC#Cc1cccc(OC2CCNCC2)c1` [Compound 18, (S)-2-amino-N-(5-(3-(piperidin-4-yloxy)phenyl)pent-4-ynyl)pentanamide], the 50% inhibitory concentration (IC50) amounted to 1.7 µM.

On to `CC[C@H](N)C(=O)NCCCC#Cc1ccccc1OC` [Compound 99], for which the IC50 amounted to 12 µM.

With `CC[C@H](N)C(=O)NCCCC#Cc1ccc(OCc2ccccc2)cc1` [Compound 86], the half-maximal inhibitory concentration (IC50) worked out at 2.4 µM.

On to `CC[C@H](N)C(=O)NCCCC#Cc1ccc2c(c1)Cc1ccccc1-2` [Compound 101], for which the concentration for half-maximal inhibition (IC50) came to 1.7 µM.

For the compound `CC[C@H](N)C(=O)NCCCC#Cc1ccccc1C1CCCCC1` [Compound 75], the half-maximal inhibitory concentration (IC50) was determined as 39 µM.

The values above are taken from US8633322B2, “Alkynyl derivatives useful as DPP-1 inhibitors” (Janssen Pharmaceutica NV, priority 2009, dated 2014).
